Test results: PubChem BioAssay (NCI)
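48-hour exposure; five concentrations; linearly interpolated endpoints. The concentration for full growth arrest is given as TGI.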

Columns and labels:
Assay in all cases: NCI-60 cell line screen, 48 h
OVCAR-3 ovarian = tested on: OVCAR-3 ovarian
MOLT-4 leukemia = tested on: MOLT-4 leukemia
786-0 renal = tested on: 786-0 renal
NCI-H23 lung = tested on: NCI-H23 lung
HS 578T breast = tested on: HS 578T breast
SK-OV-3 ovarian = tested on: SK-OV-3 ovarian
HCT-15 colon = tested on: HCT-15 colon
SK-MEL-2 melanoma = tested on: SK-MEL-2 melanoma
HT29 colon = tested on: HT29 colon
MALME-3M melanoma = tested on: MALME-3M melanoma
T-47D breast = tested on: T-47D breast
CAKI-1 renal = tested on: CAKI-1 renal
NCI-H226 lung = tested on: NCI-H226 lung
RPMI-8226 leukemia = tested on: RPMI-8226 leukemia
OVCAR-5 ovarian = tested on: OVCAR-5 ovarian
SK-MEL-5 melanoma = tested on: SK-MEL-5 melanoma
SN12C renal = tested on: SN12C renal
HOP-62 NSCLC = tested on: HOP-62 NSCLC
EKVX NSCLC = tested on: EKVX NSCLC
LOX IMVI melanoma = tested on: LOX IMVI melanoma
K-562 leukemia = tested on: K-562 leukemia
UACC-257 melanoma = tested on: UACC-257 melanoma
HL-60(TB) leukemia = tested on: HL-60(TB) leukemia
SF-295 CNS = tested on: SF-295 CNS
MCF7 breast = tested on: MCF7 breast
DU-145 prostate = tested on: DU-145 prostate
COLO 205 colon = tested on: COLO 205 colon
IGROV1 ovarian = tested on: IGROV1 ovarian
MDA-N = tested on: MDA-N
SNB-19 CNS = tested on: SNB-19 CNS
PC-3 prostate = tested on: PC-3 prostate
NCI/ADR-RES ovarian = tested on: NCI/ADR-RES ovarian
OVCAR-8 ovarian = tested on: OVCAR-8 ovarian
UO-31 renal = tested on: UO-31 renal
SF-268 CNS = tested on: SF-268 CNS
BT-549 breast = tested on: BT-549 breast
HOP-92 NSCLC = tested on: HOP-92 NSCLC
CCRF-CEM leukemia = tested on: CCRF-CEM leukemia
A498 renal = tested on: A498 renal
ACHN renal = tested on: ACHN renal
U251 CNS = tested on: U251 CNS
NCI-H460 lung = tested on: NCI-H460 lung
SF-539 CNS = tested on: SF-539 CNS
TK-10 renal = tested on: TK-10 renal
M14 melanoma = tested on: M14 melanoma
SR leukemia = tested on: SR leukemia
SK-MEL-28 melanoma = tested on: SK-MEL-28 melanoma
OVCAR-4 ovarian = tested on: OVCAR-4 ovarian
A549 NSCLC = tested on: A549 NSCLC
NCI-H522 lung = tested on: NCI-H522 lung
MDA-MB-435 = tested on: MDA-MB-435
SW-620 colon = tested on: SW-620 colon
HCT-116 colon = tested on: HCT-116 colon
HCC-2998 colon = tested on: HCC-2998 colon
UACC-62 melanoma = tested on: UACC-62 melanoma
MDA-MB-231 breast = tested on: MDA-MB-231 breast
KM12 colon = tested on: KM12 colon
SNB-75 CNS = tested on: SNB-75 CNS
RXF 393 renal = tested on: RXF 393 renal

## CCCCCCCSCC(O)COC(c1ccccc1)(c1ccccc1)c1ccccc1 (stereo not given)
OVCAR-3 ovarian
  TGI: > 100000 nM
MOLT-4 leukemia
  TGI: > 100 µM
786-0 renal
  TGI: > 100000 nM
NCI-H23 lung
  TGI: 60.3 µM
HS 578T breast
  TGI: 50.1 µM
SK-OV-3 ovarian
  TGI: > 100 µM
HCT-15 colon
  TGI: > 100 µM
SK-MEL-2 melanoma
  TGI: 52.5 µM
HT29 colon
  TGI: 68.5 µM
MALME-3M melanoma
  TGI: > 100000 nM
T-47D breast
  TGI: > 100000 nM
CAKI-1 renal
  TGI: > 100000 nM
NCI-H226 lung
  TGI: 85 µM
RPMI-8226 leukemia
  TGI: 87.3 µM
OVCAR-5 ovarian
  TGI: > 100 µM
SK-MEL-5 melanoma
  TGI: 47.9 µM
SN12C renal
  TGI: > 100000 nM
HOP-62 NSCLC
  TGI: > 100 µM
EKVX NSCLC
  TGI: > 100000 nM
LOX IMVI melanoma
  TGI: > 100000 nM
K-562 leukemia
  TGI: > 100 µM
UACC-257 melanoma
  TGI: > 100000 nM
HL-60(TB) leukemia
  TGI: 63.9 µM
SF-295 CNS
  TGI: > 100 µM
MCF7 breast
  TGI: > 100000 nM
DU-145 prostate
  TGI: > 100000 nM
COLO 205 colon
  TGI: > 100000 nM
IGROV1 ovarian
  TGI: > 100000 nM
MDA-N
  TGI: > 100000 nM
SNB-19 CNS
  TGI: > 100000 nM
PC-3 prostate
  TGI: > 100000 nM
NCI/ADR-RES ovarian
  TGI: > 100 µM
OVCAR-8 ovarian
  TGI: > 100000 nM
UO-31 renal
  TGI: 27.8 µM
SF-268 CNS
  TGI: 66.8 µM
BT-549 breast
  TGI: > 100 µM
HOP-92 NSCLC
  TGI: > 100000 nM
CCRF-CEM leukemia
  TGI: > 100000 nM
A498 renal
  TGI: > 100 µM
ACHN renal
  TGI: 76.3 µM
U251 CNS
  TGI: > 100000 nM
NCI-H460 lung
  TGI: > 100000 nM
SF-539 CNS
  TGI: > 100000 nM
TK-10 renal
  TGI: > 100000 nM
M14 melanoma
  TGI: > 100000 nM
SR leukemia
  TGI: 85.4 µM
SK-MEL-28 melanoma
  TGI: > 100000 nM
OVCAR-4 ovarian
  TGI: > 100 µM
A549 NSCLC
  TGI: > 100 µM
NCI-H522 lung
  TGI: > 100000 nM
MDA-MB-435
  TGI: > 100000 nM
SW-620 colon
  TGI: > 100000 nM
HCT-116 colon
  TGI: > 100000 nM
HCC-2998 colon
  TGI: > 100 µM
UACC-62 melanoma
  TGI: > 100000 nM
MDA-MB-231 breast
  TGI: > 100000 nM
KM12 colon
  TGI: 16.9 µM

## O=[As](O)(O)c1ccc(Cc2ccc([As](=O)(O)O)cc2)cc1
OVCAR-3 ovarian
  TGI: 2640 nM
MOLT-4 leukemia
  TGI: 4.26 µM
786-0 renal
  TGI: 1290 nM
NCI-H23 lung
  TGI: 2.26 µM
HS 578T breast
  TGI: 12.4 µM
SK-OV-3 ovarian
  TGI: 6.19 µM
HCT-15 colon
  TGI: 3.21 µM
SK-MEL-2 melanoma
  TGI: 2.87 µM
HT29 colon
  TGI: 2.38 µM
MALME-3M melanoma
  TGI: 2620 nM
T-47D breast
  TGI: 1870 nM
CAKI-1 renal
  TGI: 2780 nM
NCI-H226 lung
  TGI: 7.7 µM
RPMI-8226 leukemia
  TGI: 0.984 µM
OVCAR-5 ovarian
  TGI: 4.65 µM
SK-MEL-5 melanoma
  TGI: 1.89 µM
SN12C renal
  TGI: 2080 nM
HOP-62 NSCLC
  TGI: 3.6 µM
EKVX NSCLC
  TGI: 2880 nM
LOX IMVI melanoma
  TGI: 1410 nM
K-562 leukemia
  TGI: 3.68 µM
UACC-257 melanoma
  TGI: 1300 nM
HL-60(TB) leukemia
  TGI: 3.98 µM
SF-295 CNS
  TGI: 8.46 µM
SNB-75 CNS
  TGI: 3.12 µM
MCF7 breast
  TGI: 1190 nM
DU-145 prostate
  TGI: 1170 nM
COLO 205 colon
  TGI: 1900 nM
IGROV1 ovarian
  TGI: 1940 nM
MDA-N
  TGI: 1650 nM
SNB-19 CNS
  TGI: 2650 nM
PC-3 prostate
  TGI: 1760 nM
NCI/ADR-RES ovarian
  TGI: 6.79 µM
OVCAR-8 ovarian
  TGI: 1350 nM
UO-31 renal
  TGI: 2.63 µM
SF-268 CNS
  TGI: 1.85 µM
BT-549 breast
  TGI: 3.09 µM
HOP-92 NSCLC
  TGI: 2920 nM
CCRF-CEM leukemia
  TGI: 1050 nM
RXF 393 renal
  TGI: 1530 nM
A498 renal
  TGI: 3.96 µM
ACHN renal
  TGI: 2.31 µM
U251 CNS
  TGI: 1510 nM
NCI-H460 lung
  TGI: 2430 nM
SF-539 CNS
  TGI: 542 nM
TK-10 renal
  TGI: 1270 nM
M14 melanoma
  TGI: 2460 nM
SK-MEL-28 melanoma
  TGI: 2920 nM
OVCAR-4 ovarian
  TGI: 7.47 µM
A549 NSCLC
  TGI: 3.81 µM
NCI-H522 lung
  TGI: 1440 nM
MDA-MB-435
  TGI: 2370 nM
SW-620 colon
  TGI: 2180 nM
HCT-116 colon
  TGI: 2130 nM
HCC-2998 colon
  TGI: 3.68 µM
UACC-62 melanoma
  TGI: 2620 nM
MDA-MB-231 breast
  TGI: 2300 nM
KM12 colon
  TGI: 5.44 µM
